Results from patent US20260217708A1, “FUSED BENZAZEPINE DERIVATIVES FOR USE IN THE TREATMENT OF CANCER AND EPILEPSY” (UCB BIOPHARMA SRL, priority 2023, published 2026).

Columns and labels:
system Xc^− [1] = target: T1, system Xc^− (Homo sapiens, UniProt Q9UPY5); test: [^14C]L-Cystine uptake assay; format: cell-based; set-up: endogenous in cells; host or cells: H4 cells; conditions: H4 cells, sodium-free HEPES buffer, 0.5 μM L-[14C]Cystine and 4.5 μM L-Cystine, 1 hour at 37° C.; for IC50: read-out: pIC50 [^14C] L-Cystine uptake assay (converted)
T1 sequence (Q9UPY5 1-501): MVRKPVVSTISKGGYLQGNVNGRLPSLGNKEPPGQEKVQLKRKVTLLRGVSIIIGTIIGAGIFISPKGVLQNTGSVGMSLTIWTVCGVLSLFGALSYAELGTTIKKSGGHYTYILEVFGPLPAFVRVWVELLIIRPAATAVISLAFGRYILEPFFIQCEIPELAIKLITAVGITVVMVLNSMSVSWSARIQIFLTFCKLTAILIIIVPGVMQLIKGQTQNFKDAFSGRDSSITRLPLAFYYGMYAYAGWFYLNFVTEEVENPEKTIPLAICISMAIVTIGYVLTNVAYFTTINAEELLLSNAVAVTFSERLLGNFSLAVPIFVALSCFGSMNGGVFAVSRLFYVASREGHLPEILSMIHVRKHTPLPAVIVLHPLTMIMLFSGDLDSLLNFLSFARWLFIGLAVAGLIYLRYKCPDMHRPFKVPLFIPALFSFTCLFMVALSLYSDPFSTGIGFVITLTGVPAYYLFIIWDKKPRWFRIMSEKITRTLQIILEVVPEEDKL
T1 sequence (P08195 1-529 partner): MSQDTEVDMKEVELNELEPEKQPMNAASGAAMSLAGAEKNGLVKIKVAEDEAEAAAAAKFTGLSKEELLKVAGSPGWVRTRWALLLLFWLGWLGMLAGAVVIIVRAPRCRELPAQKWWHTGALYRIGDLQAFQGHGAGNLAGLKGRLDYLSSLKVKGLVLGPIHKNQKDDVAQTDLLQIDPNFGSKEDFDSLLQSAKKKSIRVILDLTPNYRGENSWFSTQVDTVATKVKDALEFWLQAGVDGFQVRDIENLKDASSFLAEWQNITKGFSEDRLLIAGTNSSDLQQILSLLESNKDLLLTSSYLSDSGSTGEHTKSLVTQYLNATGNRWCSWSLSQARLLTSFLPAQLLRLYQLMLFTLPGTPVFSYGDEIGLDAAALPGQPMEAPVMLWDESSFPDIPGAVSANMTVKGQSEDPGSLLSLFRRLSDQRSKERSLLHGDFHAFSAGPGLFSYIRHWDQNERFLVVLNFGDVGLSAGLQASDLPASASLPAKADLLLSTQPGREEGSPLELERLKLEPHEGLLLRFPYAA
In short: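 Compound effect is given as pIC50, taken between controls of 1% DMSO and 50 μM Erastin. Human H4 cells were pretreated 15 min with compound in sodium-free buffer, then took up 0.5 μM [14C]cystine with 4.5 μM cold cystine for 1 hour at 37° C, read by scintillation proximity counting.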

system Xc^− [2] = target: T1, system Xc^−; test: Cystine-induced glutamate release assay; format: cell-based; set-up: endogenous in cells; host or cells: H4 cells; conditions: H4 cells, sodium-free HEPES buffer, 50 μM L-Cystine, 2 hours, Amplex Red glutamate readout; for IC50: read-out: pIC50 Cystine-induced glutamate release assay (converted)
In short: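 IC50 (reported as pIC50) normalized to DMSO 1% and Erastin 50 μM controls, from Amplex Red fluorescence of glutamate exported into supernatant. H4 cells were washed into sodium-free buffer to exclude EAAT transport, then given compound with 50 μM L-cystine for 2 h in the incubator.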

| SMILES | IC50 (system Xc^− [1]) [nM] | IC50 (system Xc^− [2]) [nM] | pIC50 [^14C] L-Cystine uptake assay (system Xc^− [1]) | pIC50 Cystine-induced glutamate release assay (system Xc^− [2]) |
| --- | --- | --- | --- | --- |
| CC1C(=O)N(CC(=O)Nc2ccc(Cl)c(F)c2)c2cc(C3(F)CC3)ncc2-c2cc(F)cnc21 (single isomer, unassigned) [#326, N-(4-chloro-3-fluoro-phenyl)-2-[14-fluoro-5-(1-fluorocyclopropyl)-10-methyl-9-oxo-4,8,12-triazatricyclo[9.4.0.0^2,7]pentadeca-1(15),2,4,6,11,13-hexaen-8-yl]acetamide] | < 15.8 | < 15.8 | – | – |
| Cc1cc2c(c(C#N)n1)-c1cc(F)ccc1CC(=O)N2CC(=O)Nc1ccc(C(F)(F)F)cc1 [#127, 2-(1-cyano-10-fluoro-3-methyl-6-oxo-7H-pyrido[4,3-d][3]benzazepin-5-yl)-N-[4-(trifluoromethyl)phenyl]acetamide] | < 15.8 | 39.8 to 100 | – | – |
| CC1C(=O)N(CC(=O)Nc2ccc(Cl)c(F)c2)c2cc(N3CC4(C3)CC4(F)F)nc(F)c2-c2cccnc21 (single isomer, unassigned) [#270, N-(4-chloro-3-fluoro-phenyl)-2-[5-(2,2-difluoro-5-azaspiro[2.3]hexan-5-yl)-3-fluoro-10-methyl-9-oxo-4,8,12-triazatricyclo[9.4.0.0^2,7]pentadeca-1(15),2,4,6,11,13-hexaen-8-yl]acetamide] | 39.8 to 100 | 39.8 to 100 | – | – |
| O=C(CN1C(=O)Cc2ccccc2-c2cnc(N3CC(F)(F)C3)cc21)Nc1ccc(C(F)(F)F)cc1 [#47, 2-[3-(3,3-difluoroazetidin-1-v)-6-oxo-7H-pyrido[4,3-d][3]benzazepin-5-yl]-N-[4-(trifluoromethyl)phenyl]acetamide] | 15.8 to 39.8 | 39.8 to 100 | – | – |
| Cc1cc2c(c(F)n1)-c1cccc(C#N)c1CC(=O)N2CC(=O)Nc1ccc(C(F)(F)F)cc1 [#88, 2-(8-cyano-1-fluoro-3-methyl-6-oxo-7H-pyrido[4,3-d][3]benzazepin-5-yl)-N-[4-(trifluoromethyl)phenyl]acetamide] | 39.8 to 100 | 39.8 to 100 | – | – |
| Cc1cc2c(c(F)n1)-c1cccnc1C(C)C(=O)N2CC(=O)Nc1ccc(C)c(F)c1 (centres unmarked) [#128, 2-(3-fluoro-5,10-dimethyl-9-oxo-4,8,12-triazatricyclo[9.4.0.0^2,7]pentadeca-1(11),2(7),3,5,12,14-hexaen-8-yl)-N-(3-fluoro-4-methyl-phenyl)acetamide] | < 15.8 | 15.8 to 39.8 | – | – |
| Cc1cc2c(c(F)n1)-c1ccc(F)cc1CC(=O)N2CC(=O)Nc1ccc(C(F)(F)F)cc1 [#86, 2-(1,9-difluoro-3-methyl-6-oxo-7H-pyrido[4,3-d][3]benzazepin-5-yl)-N-[4-(trifluoromethyl)phenyl]acetamide] | 15.8 to 39.8 | 39.8 to 100 | – | – |
| Cc1cc2c(c(Cl)n1)-c1ccccc1CC(=O)N2CC(=O)Nc1ccc(C(F)(F)F)cc1 (single isomer, unassigned) [#190, Atropisomer aS or aR of 2-(1-chloro-3-methyl-6-oxo-7H-pyrido[4,3-d][3]benzazepin-5-yl)-N-[4-(trifluoromethyl)phenyl]acetamide] | – | – | B (about 7.00 < pIC50 ≤ about 7.40) | A (about 6.3 ≤ pIC50 ≤ about 7.00) |
| Cc1cc2c(c(F)n1)-c1cccnc1C(C)C(=O)N2CC(=O)Nc1ccc(C(F)F)cc1 (centres unmarked) [#132, N-[4-(difluoromethyl)phenyl]-2-(3-fluoro-5,10-dimethyl-9-oxo-4,8,12-triazatricyclo[9.4.0.0^2,7]pentadeca-1(11),2(7),3,5,12,14-hexaen-8-yl)acetamide] | < 15.8 | 39.8 to 100 | – | – |
| COc1cc2c(c(F)n1)-c1cccnc1C(C)C(=O)N2CC(=O)Nc1ccc(C(F)F)cc1 (single isomer, unassigned) [#214, Enantiomer (10S) or (10R) of N-[4-(difluoromethyl)phenyl]-2-[3-fluoro-5-methoxy-10-methyl-9-oxo-4,8,12-triazatricyclo[9.4.0.0^2,7]pentadeca-1(15),2(7),3,5,11,13-hexaen-8-yl]acetamide] | – | – | C (about 7.40 < pIC50 ≤ about 7.80) | D (plC50 > about 7.80) |
| Cc1cc2c(c(F)n1)-c1cccnc1[C@@H](C)C(=O)N2CC(=O)Nc1ccc(F)c(Cl)c1 [#241, N-(3-chloro-4-fluoro-phenyl)-2-[(10R)-3-fluoro-5,10-dimethyl-9-oxo-4,8,12-triazatricyclo[9.4.0.0^2,7]pentadeca-1(15),2,4,6,11,13-hexaen-8-yl]acetamide] | 15.8 to 39.8 | < 15.8 | – | – |
| Cc1cc2c(c(=O)n1C1CC1)-c1cccnc1C(C)C(=O)N2CC(=O)Nc1ccc(Cl)c(F)c1 (centres unmarked) [#179, N-(4-chloro-3-fluoro-phenyl)-2-(4-cyclopropyl-5,10-dimethyl-3,9-dioxo-4,8,12-triazatricyclo[9.4.0.0^2,7]pentadeca-1(11),2(7),5,12,14-pentaen-8-yl)acetamide] | 15.8 to 39.8 | 39.8 to 100 | – | – |
| COc1cc(F)c2c(c1)N(CC(=O)Nc1ccc(C(F)F)cc1)C(=O)C(C)c1ncccc1-2 (single isomer, unassigned) [#315, N-[4-(difluoromethyl)phenyl]-2-[11-fluoro-9-methoxy-5-methyl-6-oxo-5H-pyrido[2,3-d][1]benzazepin-7-yl]acetamide] | < 15.8 | < 15.8 | – | – |
| Cc1cc2c(c(Cl)n1)-c1cccnc1C(C)C(=O)N2CC(=O)Nc1ccc(C(F)F)cc1 (single isomer, unassigned) [#116, 2-[3-chloro-5,10-dimethyl-9-oxo-4,8,12-triazatricyclo[9.4.0.0^2,7]pentadeca-1(11),2(7),3,5,12,14-hexaen-8-yl]-N-[4-(difluoromethyl)phenyl]acetamide] | < 15.8 | < 15.8 | – | – |
| CC1C(=O)N(CC(=O)Nc2ccc(Cl)c(F)c2)c2cc(C(F)(F)F)nc(O)c2-c2ccccc21 (single isomer, unassigned) [#397, N-(4-chloro-3-fluoro-phenyl)-2-[1-hydroxy-7-methyl-6-oxo-3-(trifluoromethyl)-7H-pyrido[3,4-a][3]benzazepin-5-yl]acetamide] | 39.8 to 100 | 39.8 to 100 | – | – |
| Cc1cc2c(c(C#N)n1)-c1cccnc1C(C)C(=O)N2CC(=O)Nc1ccc(C(F)(F)F)cc1 (centres unmarked) [#154, 2-(3-cyano-5,10-dimethyl-9-oxo-4,8,12-triazatricyclo[9.4.0.0^2,7]pentadeca-1(11),2(7),3,5,12,14-hexaen-8-yl)-N-[4-(trifluoromethyl)phenyl]acetamide] | < 15.8 | 15.8 to 39.8 | – | – |
| Cc1cc2c(c(F)n1)-c1cncnc1C(C)C(=O)N2CC(=O)Nc1ccc(C(F)F)cc1 (single isomer, unassigned) [#218, Enantiomer (8S) or (8S) of (N-[4-(difluoromethyl)phenyl]-2-[15-fluoro-8,13-dimethyl-9-oxo-4,6,10,14-tetrazatricyclo[9.4.0.0^2,7]pentadeca-1(15),2,4,6,11,13-hexaen-10-yl]acetamide] | 100 to 501 | 15.8 to 39.8 | – | – |
| O=C(CN1C(=O)Cc2ncccc2-c2c1cc(N1CC3(C1)CC3(F)F)nc2F)Nc1ccc(C(F)F)cc1 [#421, 2-[5-(2,2-difluoro-5-azaspiro[2.3]hexan-5-yl)-3-fluoro-9-oxo-4,8,12-triazatricyclo[9.4.0.0^2,7]pentadeca-1(11),2(7),3,5,12,14-hexaen-8-yl]-N-[4-(difluoromethyl)phenyl]acetamide] | 15.8 to 39.8 | 15.8 to 39.8 | – | – |
| Cc1cc2c(c(F)n1)-c1cncnc1C(C)C(=O)N2CC(=O)Nc1ccc(C(F)(F)F)cc1 (centres unmarked) [#112, 2-(15-fluoro-8,13-dimethyl-9-oxo-4,6,10,14-tetrazatricyclo[9.4.0.0^2,7]pentadeca-1(15),2(7),3,5,11,13-hexaen-10-yl)-N-[4-(trifluoromethyl)phenyl]acetamide] | < 15.8 | 39.8 to 100 | – | – |
